These are literature values, as cited in patent publication US20030082168A1, “Compositions and methods for facilitating weight loss” (priority 2001, published 2003).

Where two headings read alike, the source gives them in different places.

The test system of series [1] is intercapsular brown adipose tissue (IBAT). The conditions noted are these: caffeine alone.
For series [2] the following is noted: 2% CLA in diet; P=0.01.
The conditions of series [3]: for Weight of control group above CLA group: after 6 weeks.

With `Cn1c(=O)c2c(ncn2C)n(C)c1=O` [Caffeine], the IBAT oxygen uptake result in series [1] is “does not increase”.

With Conjugated linoleic acid [CLA], the “Subcutaneous fat, change vs sunflower oil” value in series [2] was −6.8%. For the same molecule, the “Weight of control group above CLA group” value is listed as 5.7 g in series [3] (high-fat diet, P<0.0001) and 3.2 g in series [3] (low-fat diet, P<0.005). Also, the “Energy intake, growth rate, adipose depot weight and carcass lipid” value in series [3] (independent of diet composition) is “significantly reduced”. The Metabolic rate result in series [3] (mouse, in vivo) is given as “significantly increased”. Besides, the Nighttime respiratory quotient entry in series [3] (mouse, in vivo) is “decreased”.
